Earlier results as cited in US10640830B2, “Drug selection for non-small cell lung cancer therapy” (NESTEC S.A., priority 2013, dated 2020).

Experiments:
[1] = tested on: CYP450
[2] = in vivo
[3] = early Phase I evaluation
[4] = tested on: human xenograft models; conditions: dosed orally in human xenograft models

In the case of `COc1cc2c(Oc3ccc(NC(=O)C4(C(=O)Nc5ccc(F)cc5)CC4)cc3F)ccnc2cc1OCCCN1CCOCC1` [GSK 1363089/XL880], the “CYP450 substrate / inhibitor / inducer” value [1] is given as “CYP450 substrate, but not an inhibitor or inducer” and the oral bioavailability [2] is given as “good oral bioavailability”.

In the case of `CN(C[C@@H]1COCCO1)S(=O)(=O)Nc1ccc2ccc3ncc(-c4cnn(C)c4)cc3c(=O)c2c1` [MK-2461], the tolerability [3] is listed as “well tolerated”.

In the case of `Cn1cc(-c2ccc3nnc(Sc4ccc5ncccc5c4)n3n2)cn1` [SGX523], the antitumor activity [4] is listed as “potent antitumor activity” and the toxicity [4] is listed as “no overt toxicity”.
